Results on seven cell lines are retold here after the supplement of paper PMC10307832.

Common to all, as to test: relative viability (nuclei count vs DMSO), 5 days (fraction); higher = more cells survive
Compound in assay [1]: C1CC2=C(C1)C=C(C=C2)OC3=NC(=C4C(=N3)N(C=N4)CC5=CC=C(C=C5)C6=CC=CC=C6)N[C@@H](CC7=CC=CC=C7)CO [QS11] + COc1cc2c(Oc3ccc(NC(=O)C4(C(=O)Nc5ccc(F)cc5)CC4)cc3F)ccnc2cc1OCCCN1CCOCC1 [Foretinib] (partner 0.25 µM)
The procedure, abridged: (§1)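 Relative viability divides the nuclei count in treated wells by that in vehicle wells. Lung cancer cell lines were seeded in 1536-well plates, dosed by pin tool the next day, and fixed and stained after 5 days in one step with final 0.05% Triton X-100, 1% formaldehyde and 1 ug/ml Hoechst. Dosing was a single drug or a fixed anchor-drug dose plus five library-drug doses (not always all listed) in √10 steps, and values are medians of duplicate plates imaged at 4×.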

Compound in assay [2]: C1CC2=C(C1)C=C(C=C2)OC3=NC(=C4C(=N3)N(C=N4)CC5=CC=C(C=C5)C6=CC=CC=C6)N[C@@H](CC7=CC=CC=C7)CO [QS11] + C[C@]1(O)C[C@@H](c2nc(-c3ccc4ccc(-c5ccccc5)nc4c3)c3c(N)nccn32)C1 [Linsitinib] (partner 1 µM)
The essentials:
as §1

Compound in assay [3]: C[As](C)SC[C@H](NC(=O)CC[C@H](N)C(=O)O)C(=O)NCC(=O)O [Darinaparsin] + C[C@]1(O)C[C@@H](c2nc(-c3ccc4ccc(-c5ccccc5)nc4c3)c3c(N)nccn32)C1 [Linsitinib] (partner 1 µM)
The procedure, abridged: as §1

Compound in assay [4]: C[As](C)SC[C@H](NC(=O)CC[C@H](N)C(=O)O)C(=O)NCC(=O)O [Darinaparsin] + Cc1cc(Nc2cc(N3CCN(C)CC3)nc(Sc3ccc(NC(=O)C4CC4)cc3)n2)n[nH]1 [Tozasertib] (partner 0.1 µM)
The essentials:
as §1

As to 201T, the relative viability amounted to 1.18 in assay [1] (first compound 0.08 µM); 1.08 in assay [1] (first compound 0.253 µM); 0.868 in assay [1] (first compound 0.8 µM); 1.04 in assay [1] (first compound 2.53 µM); 0.632 in assay [1] (first compound 8 µM); 1.01 in assay [2] (first compound 0.08 µM). Moreover, the relative viability is 1.01 in assay [2] (first compound 0.253 µM); 0.847 in assay [2] (first compound 0.8 µM); 1.01 in assay [2] (first compound 2.53 µM); 0.888 in assay [2] (first compound 8 µM); 1.04 in assay [3] (first compound 0.08 µM); 1.03 in assay [3] (first compound 0.8 µM). The relative viability in assay [3] (first compound 2.53 µM) worked out at 1.04; in assay [3] (first compound 8 µM), 1.06; in assay [4] (first compound 0.08 µM) it was 1.04; in assay [4] (first compound 0.8 µM), 0.914; in assay [4] (first compound 2.53 µM), 0.994; in assay [4] (first compound 8 µM), 1.12.
Take A549: the relative viability in assay [1] (first compound 0.08 µM) was 0.911; in assay [1] (first compound 0.253 µM) it was 0.883; in assay [1] (first compound 0.8 µM), 0.697; in assay [1] (first compound 2.53 µM), 0.918; in assay [1] (first compound 8 µM) it was 0.917; in assay [2] (first compound 0.08 µM), 0.506. Also, the relative viability came to 0.558 in assay [2] (first compound 0.253 µM); 0.507 in assay [2] (first compound 0.8 µM); 0.475 in assay [2] (first compound 2.53 µM); 0.885 in assay [2] (first compound 8 µM); 0.756 in assay [3] (first compound 0.08 µM); 0.612 in assay [3] (first compound 0.8 µM). The relative viability came out at 0.389 in assay [3] (first compound 2.53 µM) and 0.632 in assay [3] (first compound 8 µM).
As for A-427, the relative viability in assay [1] (first compound 0.08 µM) was 1.13; in assay [1] (first compound 0.253 µM) it was 1.15; in assay [1] (first compound 2.53 µM), 1.22; in assay [1] (first compound 8 µM), 1.17; in assay [2] (first compound 0.08 µM), 1.12; in assay [2] (first compound 0.253 µM) it was 1.1. In addition, the relative viability in assay [2] (first compound 2.53 µM) was determined as 1.14; in assay [2] (first compound 8 µM), 1.09; in assay [3] (first compound 0.08 µM), 1.2; in assay [3] (first compound 0.8 µM), 1.09; in assay [3] (first compound 2.53 µM) it was 1.13; in assay [3] (first compound 8 µM), 1.12. Moreover, the relative viability came out at 0.2 in assay [4] (first compound 0.08 µM), 0.215 in assay [4] (first compound 0.8 µM), 0.177 in assay [4] (first compound 2.53 µM) and 0.193 in assay [4] (first compound 8 µM).
For ABC-1, the relative viability in assay [1] (first compound 0.08 µM) was 0.912; in assay [1] (first compound 0.253 µM) it was 1.06; in assay [1] (first compound 0.8 µM), 1.06; in assay [1] (first compound 2.53 µM), 1.08; in assay [1] (first compound 8 µM), 1.32; in assay [2] (first compound 0.08 µM), 0.955. Further, the relative viability in assay [2] (first compound 0.253 µM) came to 0.646; in assay [2] (first compound 0.8 µM), 0.88; in assay [2] (first compound 2.53 µM), 0.801; in assay [2] (first compound 8 µM), 0.929; in assay [3] (first compound 0.08 µM), 0.801; in assay [3] (first compound 0.8 µM), 0.849. Besides, the relative viability was found to be 0.735 in assay [3] (first compound 2.53 µM); 1.04 in assay [3] (first compound 8 µM); 0.169 in assay [4] (first compound 0.08 µM); 0.205 in assay [4] (first compound 0.8 µM); 0.2 in assay [4] (first compound 2.53 µM); 0.192 in assay [4] (first compound 8 µM).
For the cell line BEN, the relative viability in assay [1] (first compound 0.08 µM) is 0.47; in assay [1] (first compound 0.253 µM) it was 0.616; in assay [1] (first compound 0.8 µM) it was 0.814; in assay [1] (first compound 2.53 µM), 0.691; in assay [1] (first compound 8 µM) it was 0.701; in assay [2] (first compound 0.08 µM), 0.851. Also, the relative viability was 1.17 in assay [2] (first compound 0.253 µM); 1.07 in assay [2] (first compound 0.8 µM); 0.79 in assay [2] (first compound 2.53 µM); 1.12 in assay [2] (first compound 8 µM); 0.947 in assay [3] (first compound 0.08 µM); 1.02 in assay [3] (first compound 0.8 µM). For the same cell line, the relative viability in assay [3] (first compound 2.53 µM) is 0.764; in assay [3] (first compound 8 µM), 1.11; in assay [4] (first compound 0.08 µM), 0.489; in assay [4] (first compound 0.8 µM), 0.498; in assay [4] (first compound 2.53 µM), 0.463; in assay [4] (first compound 8 µM), 0.444.
CAL-12T: the relative viability is 1.04 in assay [1] (first compound 0.08 µM); 1.1 in assay [1] (first compound 0.253 µM); 0.98 in assay [1] (first compound 0.8 µM); 1.06 in assay [1] (first compound 2.53 µM); 0.939 in assay [1] (first compound 8 µM); 1.01 in assay [2] (first compound 0.08 µM). The relative viability turned out to be 0.693 in assay [2] (first compound 0.253 µM); 0.695 in assay [2] (first compound 0.8 µM); 0.688 in assay [2] (first compound 2.53 µM); 0.7 in assay [2] (first compound 8 µM); 1.08 in assay [3] (first compound 0.08 µM); 0.757 in assay [3] (first compound 0.8 µM). The relative viability came to 0.686 in assay [3] (first compound 2.53 µM); 0.956 in assay [3] (first compound 8 µM); 0.343 in assay [4] (first compound 0.08 µM); 0.3 in assay [4] (first compound 0.8 µM); 0.326 in assay [4] (first compound 2.53 µM); 0.341 in assay [4] (first compound 8 µM).
Turning to COR-L23, the relative viability in assay [1] (first compound 0.08 µM) is 0.976; in assay [1] (first compound 0.253 µM), 1.03; in assay [1] (first compound 0.8 µM) it was 0.716; in assay [1] (first compound 2.53 µM) it was 0.802; in assay [1] (first compound 8 µM), 0.735; in assay [2] (first compound 0.08 µM), 0.938. The relative viability was determined as 1.01 in assay [2] (first compound 0.253 µM); 0.767 in assay [2] (first compound 0.8 µM); 0.784 in assay [2] (first compound 2.53 µM); 0.625 in assay [2] (first compound 8 µM); 1.24 in assay [3] (first compound 0.08 µM); 0.886 in assay [3] (first compound 0.8 µM). Besides, the relative viability in assay [3] (first compound 2.53 µM) came to 0.859; in assay [3] (first compound 8 µM) it was 1.02; in assay [4] (first compound 0.08 µM), 0.208; in assay [4] (first compound 0.8 µM), 0.225; in assay [4] (first compound 2.53 µM), 0.24; in assay [4] (first compound 8 µM) it was 0.196.
